Legend:
Format in all cases: ADME, organism-based
[1] = Drug metabolism in human slow inactivators assessed as excretion of isonicotinic acid in urine at 1 g, iv by colorimetry; conditions: in vivo
[2] = Drug metabolism in human slow inactivators assessed as excretion of isonicotinuric acid in urine at 1 g, iv by colorimetry; conditions: in vivo
[3] = Drug excretion in human subject slow inactivator assessed as sum of isoniazid plus hydrazones, acetylisoniazid, isonicotinic acid and isonicotinuric acid level in urine at 681 mg, iv infused at constant rate 5.4 min measured 59.1 mins after start of drug injection by colorimetry; conditions: in vivo, 0.985 h
[4] = Drug excretion in human subject slow inactivator assessed as sum of isoniazid plus hydrazones, acetylisoniazid, isonicotinic acid and isonicotinuric acid level in urine at 681 mg, iv infused at constant rate 5.4 min measured 150 mins after start of drug injection by colorimetry; conditions: in vivo, 2.5 h
[5] = Drug excretion in human subject slow inactivator assessed as sum of isoniazid plus hydrazones, acetylisoniazid, isonicotinic acid and isonicotinuric acid level in urine at 681 mg, iv infused at constant rate 5.4 min measured 181 mins after start of drug injection by colorimetry; conditions: in vivo
[6] = Drug excretion in human subject slow inactivator assessed as sum of isoniazid plus hydrazones, acetylisoniazid, isonicotinic acid and isonicotinuric acid level in urine at 681 mg, iv infused at constant rate 5.4 min measured 208.7 mins after start of drug injection by colorimetry; conditions: in vivo, 3.47833 h
[7] = Drug excretion in human subject slow inactivator assessed as sum of isoniazid plus hydrazones, acetylisoniazid, isonicotinic acid and isonicotinuric acid level in urine at 681 mg, iv infused at constant rate 5.4 min measured 276.3 mins after start of drug injection by colorimetry; conditions: in vivo, 4.605 h
[8] = Drug excretion in human subject slow inactivator assessed as sum of isoniazid plus hydrazones, acetylisoniazid, isonicotinic acid and isonicotinuric acid level in urine at 681 mg, iv infused at constant rate 5.4 min measured 430.2 mins after start of drug injection by colorimetry; conditions: in vivo, 7.17 h
[9] = Drug excretion in human subject slow inactivator assessed as sum of isoniazid plus hydrazones, acetylisoniazid, isonicotinic acid and isonicotinuric acid level in urine at 681 mg, iv infused at constant rate 5.4 min measured 466 mins after start of drug injection by colorimetry; conditions: in vivo
[10] = Drug excretion in human subject slow inactivator assessed as total isonicotinoyl compound level in urine at 681 mg, iv infused at constant rate 5.4 min measured 116 mins after start of drug injection by colorimetry; conditions: in vivo
[11] = Drug excretion in human subject slow inactivator assessed as total isonicotinoyl compound level in urine at 681 mg, iv infused at constant rate 5.4 min measured 305 mins after start of drug injection by colorimetry; conditions: in vivo
[12] = Drug excretion in human subject slow inactivator assessed as total isonicotinoyl compound level in urine at 681 mg, iv infused at constant rate 5.4 min measured 370.3 mins after start of drug injection by colorimetry; conditions: in vivo, 6.17167 h
[13] = Drug excretion in human subject slow inactivator assessed as total isonicotinoyl compound level in urine at 681 mg, iv infused at constant rate 5.4 min measured 430.2 mins after start of drug injection by colorimetry; conditions: in vivo, 7.17 h
[14] = Drug excretion in human subject slow inactivator assessed as total isonicotinoyl compound level in urine at 681 mg, iv infused at constant rate 5.4 min measured 496 mins after start of drug injection by colorimetry; conditions: in vivo
[15] = Drug excretion in human subject slow inactivator assessed as total isonicotinoyl compound level in urine at 681 mg, iv infused at constant rate 5.4 min measured 586 mins after start of drug injection by colorimetry; conditions: in vivo
[16] = Drug excretion in human subject slow inactivator assessed as total isonicotinoyl compound level in urine at 681 mg, iv infused at constant rate 5.4 min measured 613 mins after start of drug injection by colorimetry; conditions: in vivo
[17] = Drug excretion in human slow inactivators urine assessed as isoniazid plus hydrazones level at 1 g, iv by colorimetry; conditions: in vivo
[18] = Drug excretion in human slow inactivators urine assessed as total isonicotinoyl compounds at 1 g, iv by colorimetry; conditions: in vivo
[19] = Drug metabolism in human rapid inactivators assessed as excretion of isonicotinuric acid in urine at 1 g, iv by colorimetry; conditions: in vivo
[20] = Drug metabolism in human slow inactivators assessed as excretion of pyruvic acid isonicotinoylhydrazone in urine at 1 g, iv by colorimetry; conditions: in vivo
[21] = Drug excretion in human subject slow inactivator assessed as total isonicotinoyl compound level in urine at 681 mg, iv infused at constant rate 5.4 min measured 677 mins after start of drug injection by colorimetry; conditions: in vivo
[22] = Drug excretion in human subject slow inactivator assessed as total isonicotinoyl compound level in urine at 681 mg, iv infused at constant rate 5.4 min measured 710 mins after start of drug injection by colorimetry; conditions: in vivo
[23] = Drug excretion in human subject rapid inactivator assessed as sum of isoniazid plus hydrazones, acetylisoniazid, isonicotinic acid and isonicotinuric acid level in urine at 670 mg, iv infused at constant rate 5.2min measured 158 mins after start of drug injection by colorimetry; conditions: in vivo
[24] = Drug excretion in human subject rapid inactivator assessed as sum of isoniazid plus hydrazones, acetylisoniazid, isonicotinic acid and isonicotinuric acid level in urine at 670 mg, iv infused at constant rate 5.2min measured 227 mins after start of drug injection by colorimetry; conditions: in vivo
[25] = Drug excretion in human subject rapid inactivator assessed as sum of isoniazid plus hydrazones, acetylisoniazid, isonicotinic acid and isonicotinuric acid level in urine at 670 mg, iv infused at constant rate 5.2min measured 400 mins after start of drug injection by colorimetry; conditions: in vivo
[26] = Drug excretion in human subject rapid inactivator assessed as sum of isoniazid plus hydrazones, acetylisoniazid, isonicotinic acid and isonicotinuric acid level in urine at 670 mg, iv infused at constant rate 5.2min measured 458 mins after start of drug injection by colorimetry; conditions: in vivo
[27] = Drug excretion in human subject rapid inactivator assessed as total isonicotinoyl compound level in urine at 670 mg, iv infused at constant rate 5.2min measured 62 mins after start of drug injection by colorimetry; conditions: in vivo
[28] = Drug excretion in human subject rapid inactivator assessed as total isonicotinoyl compound level in urine at 670 mg, iv infused at constant rate 5.2min measured 126 mins after start of drug injection by colorimetry; conditions: in vivo, 2.1 h
[29] = Drug excretion in human subject rapid inactivator assessed as total isonicotinoyl compound level in urine at 670 mg, iv infused at constant rate 5.2min measured 296 mins after start of drug injection by colorimetry; conditions: in vivo
[30] = Drug excretion in human subject rapid inactivator assessed as total isonicotinoyl compound level in urine at 670 mg, iv infused at constant rate 5.2min measured 335 mins after start of drug injection by colorimetry; conditions: in vivo
[31] = Drug excretion in human subject rapid inactivator assessed as total isonicotinoyl compound level in urine at 670 mg, iv infused at constant rate 5.2min measured 373 mins after start of drug injection by colorimetry; conditions: in vivo
[32] = Drug excretion in human subject rapid inactivator assessed as total isonicotinoyl compound level in urine at 670 mg, iv infused at constant rate 5.2min measured 426 mins after start of drug injection by colorimetry; conditions: in vivo, 7.1 h

Drug metabolism [1]: 18.1 %molar | Drug metabolism [2]: 14.2 %molar | Drug excretion [3]: 30.44 mg | Drug excretion [4]: 38.71 mg | Drug excretion [5]: 34.76 mg | Drug excretion [6]: 28.41 mg | Drug excretion [7]: 32.59 mg | Drug excretion [8]: 21.24 mg | Drug excretion [9]: 20.23 mg | Drug excretion [10]: 32 mg | Drug excretion [11]: 27.3 mg | Drug excretion [12]: 26.6 mg | Drug excretion [13]: 20 mg | Drug excretion [14]: 13.5 mg | Drug excretion [15]: 12.7 mg | Drug excretion [16]: 12.2 mg | Drug excretion [17]: 98% | Drug excretion [18]: 98.8% | Drug metabolism [19]: 21.3 %molar | Drug metabolism [20]: 13.9 %molar | Drug excretion [21]: 10.6 mg | Drug excretion [22]: 9.25 mg | Drug excretion [23]: 49.9 mg | Drug excretion [24]: 38.5 mg | Drug excretion [25]: 17.9 mg | Drug excretion [26]: 17.3 mg | Drug excretion [27]: 43.3 mg | Drug excretion [28]: 43.4 mg | Drug excretion [29]: 42.1 mg | Drug excretion [30]: 29.6 mg | Drug excretion [31]: 28.7 mg | Drug excretion [32]: 17.1 mg
Structure (SMILES): NNC(=O)c1ccncc1 [ISONIAZID]

From ChEMBL document CHEMBL3785036 (J Pharm Sci, 1974)
